Assay results reported in ChEMBL document CHEMBL4680144, “N-thiadiazole-4-hydroxy-2-quinolone-3-carboxamides bearing heteroaromatic rings as novel antibacterial agents: Design, synthesis, biological evaluation and target identification” (Eur J Med Chem, 2020).
Converted amounts (≈) assume the structure as drawn.

Experiments:
[1] = Inhibition of Staphylococcus aureus Gyrase B using linear pBR322 DNA as substrate incubated for 30 mins in presence of ATP by ADP-Glo assay
[2] = system: Staphylococcus aureus; assay: Antibacterial activity against wild type methicillin-sensitive Staphylococcus aureus ATCC 29213 assessed as inhibition of bacterial growth incubated for 18 to 24 hrs by broth microdilution method; assay type: functional; details: time 18-24 hrs
[3] = system: Enterococcus faecalis; assay: Antibacterial activity against Enterococcus faecalis clinical isolate 15-2 assessed as inhibition of bacterial growth incubated for 18 to 24 hrs by broth microdilution method; assay type: functional; details: time 18-24 hrs
[4] = system: Staphylococcus aureus; assay: Antibacterial activity against methicillin-resistant Staphylococcus aureus clinical isolate 15-6 assessed as inhibition of bacterial growth incubated for 18 to 24 hrs by broth microdilution method; assay type: functional; details: time 18-24 hrs
[5] = system: Enterococcus faecalis; assay: Antibacterial activity against vancomycin-resistant Enterococcus faecalis ATCC 51299 assessed as inhibition of bacterial growth incubated for 18 to 24 hrs by broth microdilution method; assay type: functional; details: time 18-24 hrs
[6] = system: Enterococcus faecalis; assay: Antibacterial activity against vancomycin-resistant Enterococcus faecalis ATCC 700802 assessed as inhibition of bacterial growth incubated for 18 to 24 hrs by broth microdilution method; assay type: functional; details: time 18-24 hrs
[7] = system: Enterococcus faecalis; assay: Antibacterial activity against vancomycin-resistant Enterococcus faecalis ATCC 51575 assessed as inhibition of bacterial growth incubated for 18 to 24 hrs by broth microdilution method; assay type: functional; details: time 18-24 hrs
[8] = system: Staphylococcus epidermidis; assay: Antibacterial activity against methicillin-sensitive Staphylococcus epidermidis clinical isolate 15-3 assessed as inhibition of bacterial growth incubated for 18 to 24 hrs by broth microdilution method; assay type: functional; details: time 18-24 hrs
[9] = system: Staphylococcus aureus; assay: Antibacterial activity against methicillin-resistant Staphylococcus aureus clinical isolate 15-2 assessed as inhibition of bacterial growth incubated for 18 to 24 hrs by broth microdilution method; assay type: functional; details: time 18-24 hrs
[10] = system: Staphylococcus aureus; assay: Antibacterial activity against methicillin resistant and vancomycin-intermediate sensitive Staphylococcus aureus ATCC 700788 assessed as inhibition of bacterial growth incubated for 18 to 24 hrs by broth microdilution method; assay type: functional; details: time 18-24 hrs
[11] = system: Staphylococcus epidermidis; assay: Antibacterial activity against methicillin-resistant Staphylococcus epidermidis clinical isolate 15-1 assessed as inhibition of bacterial growth incubated for 18 to 24 hrs by broth microdilution method; assay type: functional; details: time 18-24 hrs
[12] = system: Staphylococcus epidermidis; assay: Antibacterial activity against methicillin-resistant Staphylococcus epidermidis clinical isolate 15-3 assessed as inhibition of bacterial growth incubated for 18 to 24 hrs by broth microdilution method; assay type: functional; details: time 18-24 hrs
[13] = system: Enterococcus faecium; assay: Antibacterial activity against Enterococcus faecium clinical isolate 15-2 assessed as inhibition of bacterial growth incubated for 18 to 24 hrs by broth microdilution method; assay type: functional; details: time 18-24 hrs
[14] = system: Staphylococcus aureus; assay: Antibacterial activity against methicillin-resistant Staphylococcus aureus clinical isolate 15-8 assessed as inhibition of bacterial growth incubated for 18 to 24 hrs by broth microdilution method; assay type: functional; details: time 18-24 hrs
[15] = system: Enterococcus faecium; assay: Antibacterial activity against Enterococcus faecium clinical isolate 15-1 assessed as inhibition of bacterial growth incubated for 18 to 24 hrs by broth microdilution method; assay type: functional; details: time 18-24 hrs
[16] = system: Staphylococcus epidermidis; assay: Antibacterial activity against methicillin-resistant Staphylococcus epidermidis clinical isolate 15-2 assessed as inhibition of bacterial growth incubated for 18 to 24 hrs by broth microdilution method; assay type: functional; details: time 18-24 hrs
[17] = system: Staphylococcus aureus; assay: Antibacterial activity against methicillin-resistant Staphylococcus aureus clinical isolate 15-1 assessed as inhibition of bacterial growth incubated for 18 to 24 hrs by broth microdilution method; assay type: functional; details: time 18-24 hrs
[18] = system: Staphylococcus epidermidis; assay: Antibacterial activity against methicillin-sensitive Staphylococcus epidermidis clinical isolate 15-4 assessed as inhibition of bacterial growth incubated for 18 to 24 hrs by broth microdilution method; assay type: functional; details: time 18-24 hrs
[19] = system: Enterococcus faecalis; assay: Antibacterial activity against Enterococcus faecalis clinical isolate 15-1 assessed as inhibition of bacterial growth incubated for 18 to 24 hrs by broth microdilution method; assay type: functional; details: time 18-24 hrs
[20] = system: Staphylococcus aureus; assay: Antibacterial activity against methicillin-resistant Staphylococcus aureus clinical isolate 15-3 assessed as inhibition of bacterial growth incubated for 18 to 24 hrs by broth microdilution method; assay type: functional; details: time 18-24 hrs
[21] = system: Staphylococcus aureus; assay: Antibacterial activity against methicillin-resistant Staphylococcus aureus clinical isolate 15-7 assessed as inhibition of bacterial growth incubated for 18 to 24 hrs by broth microdilution method; assay type: functional; details: time 18-24 hrs
[22] = system: Staphylococcus aureus; assay: Antibacterial activity against methicillin-resistant Staphylococcus aureus clinical isolate 15-9 assessed as inhibition of bacterial growth incubated for 18 to 24 hrs by broth microdilution method; assay type: functional; details: time 18-24 hrs
[23] = system: Staphylococcus aureus; assay: Antibacterial activity against methicillin resistant and vancomycin-intermediate sensitive Staphylococcus aureus ATCC 700699 assessed as inhibition of bacterial growth incubated for 18 to 24 hrs by broth microdilution method; assay type: functional; details: time 18-24 hrs

Q: With CCn1c(=O)c(C(=O)Nc2nnc(-c3cccs3)s2)c(O)c2ccccc21 as the compound, how does the IC50 [1] read?
A: 220 nM

Q: What about the MIC [2] of the same compound?
A: 3.12 µg/mL (≈ 7.83 µM)

Q: Which IC50 [1] does the source give for CCn1c(=O)c(C(=O)Nc2nnc(-c3cccc(C)c3)s2)c(O)c2ccccc21 here?
A: 1750 nM

Q: And the MIC [2]?
A: 12.5 µg/mL (≈ 30.8 µM)

Q: For CCCCCCc1nnc(NC(=O)c2c(O)c3ccccc3n(CC)c2=O)s1, which IC50 [1] is on record?
A: 350 nM

Q: What about the MIC [2] of the same compound?
A: 12.5 µg/mL (≈ 31.2 µM)

Q: With CCn1c(=O)c(C(=O)Nc2nnc(-c3ccccc3)s2)c(O)c2ccccc21 as the compound, how does the MIC [3] read?
A: 1 µg/mL (≈ 2.55 µM)

Q: What about the IC50 [1] of the same compound?
A: 1720 nM

Q: What about the MIC [4] of the same compound?
A: 0.5 µg/mL (≈ 1.27 µM)

Q: And the MIC [5]?
A: 1 µg/mL (≈ 2.55 µM)

Q: What about the MIC [6] of the same compound?
A: 1 µg/mL (≈ 2.55 µM)

Q: And the MIC [7]?
A: 1 µg/mL (≈ 2.55 µM)

Q: And the MIC [8]?
A: 1 µg/mL (≈ 2.55 µM)

Q: What about the MIC [9] of the same compound?
A: 2 µg/mL (≈ 5.1 µM)

Q: And the MIC [10]?
A: 2 µg/mL (≈ 5.1 µM)

Q: And the MIC [11]?
A: 1 µg/mL (≈ 2.55 µM)

Q: What about the MIC [12] of the same compound?
A: 1 µg/mL (≈ 2.55 µM)

Q: What about the MIC [13] of the same compound?
A: 2 µg/mL (≈ 5.1 µM)

Q: And the MIC [14]?
A: 0.5 µg/mL (≈ 1.27 µM)

Q: What about the MIC [15] of the same compound?
A: 1 µg/mL (≈ 2.55 µM)

Q: And the MIC [16]?
A: 1 µg/mL (≈ 2.55 µM)

Q: And the MIC [17]?
A: 2 µg/mL (≈ 5.1 µM)

Q: What about the MIC [18] of the same compound?
A: 1 µg/mL (≈ 2.55 µM)

Q: What about the MIC [19] of the same compound?
A: 1 µg/mL (≈ 2.55 µM)

Q: What about the MIC [2] of the same compound?
A: 0.39 µg/mL (≈ 0.994 µM)

Q: What about the MIC [20] of the same compound?
A: 1 µg/mL (≈ 2.55 µM)

Q: What about the MIC [21] of the same compound?
A: 1 µg/mL (≈ 2.55 µM)

Q: What about the MIC [22] of the same compound?
A: 0.25 µg/mL (≈ 0.637 µM)

Q: And the MIC [23]?
A: 2 µg/mL (≈ 5.1 µM)

Q: Which results are given for CCn1c(=O)c(C(=O)Nc2nncs2)c(O)c2ccccc21?
A: IC50 [1]: 110 nM; MIC [2]: 1.56 µg/mL (≈ 4.93 µM)

Q: What does the source list for CCn1c(=O)c(C(=O)Nc2nnc(C3CCCCC3)s2)c(O)c2ccccc21?
A: IC50 [1]: 550 nM; MIC [2]: 12.5 µg/mL (≈ 31.4 µM)

Q: For CCn1c(=O)c(C(=O)Nc2nnc(-c3cccnc3)s2)c(O)c2ccccc21, which MIC [3] is on record?
A: > 64 µg/mL

Q: And the IC50 [1]?
A: 240 nM

Q: And the MIC [4]?
A: 0.5 µg/mL (≈ 1.27 µM)

Q: What about the MIC [5] of the same compound?
A: > 64 µg/mL

Q: What about the MIC [6] of the same compound?
A: > 64 µg/mL

Q: What about the MIC [7] of the same compound?
A: > 64 µg/mL

Q: And the MIC [8]?
A: 2 µg/mL (≈ 5.08 µM)

Q: What about the MIC [9] of the same compound?
A: 0.5 µg/mL (≈ 1.27 µM)

Q: And the MIC [10]?
A: 1 µg/mL (≈ 2.54 µM)

Q: What about the MIC [11] of the same compound?
A: 1 µg/mL (≈ 2.54 µM)

Q: And the MIC [12]?
A: 1 µg/mL (≈ 2.54 µM)

Q: What about the MIC [13] of the same compound?
A: > 64 µg/mL

Q: And the MIC [14]?
A: 0.5 µg/mL (≈ 1.27 µM)

Q: What about the MIC [15] of the same compound?
A: > 64 µg/mL

Q: What about the MIC [16] of the same compound?
A: 1 µg/mL (≈ 2.54 µM)

Q: And the MIC [17]?
A: 0.5 µg/mL (≈ 1.27 µM)

Q: And the MIC [18]?
A: 1 µg/mL (≈ 2.54 µM)

Q: What about the MIC [19] of the same compound?
A: > 64 µg/mL

Q: And the MIC [2]?
A: 0.39 µg/mL (≈ 0.991 µM)

Q: What about the MIC [20] of the same compound?
A: 0.5 µg/mL (≈ 1.27 µM)

Q: What about the MIC [21] of the same compound?
A: 0.5 µg/mL (≈ 1.27 µM)

Q: What about the MIC [22] of the same compound?
A: 0.5 µg/mL (≈ 1.27 µM)

Q: What about the MIC [23] of the same compound?
A: 1 µg/mL (≈ 2.54 µM)

Q: Which results are given for CCn1c(=O)c(C(=O)Nc2nnc(-c3ccc(Cl)cc3)s2)c(O)c2ccccc21?
A: IC50 [1]: 1460 nM; MIC [2]: 12.5 µg/mL (≈ 29.3 µM)

Q: Which IC50 [1] does the source give for Cn1c(=O)c(C(=O)Nc2nncs2)c(O)c2ccccc21 here?
A: 190 nM

Q: And the MIC [2]?
A: 6.25 µg/mL (≈ 20.7 µM)
